# Values of other authors as cited in patent publication US8476252B2, “Pharmaceutical emulsion compositions comprising progestogen” (Besins Healthcare Luxembourg SARL, priority 2010, dated 2013).
# Tested on: TBI patients
# Conditions: Xiao et al 2008, Wright et al 2007
compound,measurement,setting,value
"CC(=O)[C@H]1CC[C@H]2[C@@H]3CCC4=CC(=O)CC[C@]4(C)[C@H]3CC[C@]12C [progesterone, pregn-4-ene-3,20-dione]",Safety and tolerability,TBI patients,safe and well tolerated
same,Mortality,administration of progesterone to TBI patients,decreased mortality
